Assays:
[1] = DTA
[2] = Molar enthalpy of transition or fusion; conditions: DSC
[3] = molar heat capacity at constant pressure; conditions: 101.33 kPa, Crystal 4, Small sample (50 mg) DSC

CCN1C(=O)CC(=O)N(CC)C1=S [1,3-diethyl-2-thiobarbituric acid]
Conditions	Molar enthalpy of transition or fusion [kJ/mol]	Triple point temperature [K]	molar heat capacity at constant pressure [J/K/mol]
[1], Crystal	–	377.1	–
[2], Crystal	35.5	–	–
[3], 265.15 K	–	–	213.5
[3], 270.15 K	–	–	217.3
[3], 273.15 K	–	–	219.8
[3], 275.15 K	–	–	221.2
[3], 280.15 K	–	–	224.5
[3], 285.15 K	–	–	227.7
[3], 290.15 K	–	–	230.4
[3], 295.15 K	–	–	233.7
[3], 298.15 K	–	–	236.9
[3], 300.15 K	–	–	238.9
[3], 305.15 K	–	–	240.8
[3], 310.15 K	–	–	244.8
[3], 315.15 K	–	–	249.8
[3], 320.15 K	–	–	252.9
[3], 325.15 K	–	–	256.1
[3], 330.15 K	–	–	259.7
[3], 335.15 K	–	–	263.1
[3], 340.15 K	–	–	266.5
[3], 345.15 K	–	–	269.7
[3], 350.15 K	–	–	273.3
[3], 355.15 K	–	–	277.8
[3], 360.15 K	–	–	282.3
[3], 365.15 K	–	–	287.2

Oc1cc(O)nc(S)n1 [2-mercapto-4,6-pyrimidinediol]
Conditions	Molar enthalpy of transition or fusion [kJ/mol]	Triple point temperature [K]	molar heat capacity at constant pressure [J/K/mol]
[1], Crystal 1	–	516.4	–
[1], Crystal 2	–	498	–
[1], Crystal 3	–	475.8	–
[1], Crystal 4	–	447.2	–
[2], Crystal 1	14.8	–	–
[2], Crystal 2	0.3	–	–
[2], Crystal 3	0.2	–	–
[2], Crystal 4	0.7	–	–
[3], 265.15 K	–	–	124.3
[3], 270.15 K	–	–	126.6
[3], 273.15 K	–	–	128
[3], 275.15 K	–	–	128.8
[3], 280.15 K	–	–	131.1
[3], 285.15 K	–	–	132.5
[3], 290.15 K	–	–	134.2
[3], 295.15 K	–	–	136.2
[3], 298.15 K	–	–	137.2
[3], 300.15 K	–	–	138.6
[3], 305.15 K	–	–	140
[3], 310.15 K	–	–	142.2
[3], 315.15 K	–	–	144.7
[3], 320.15 K	–	–	146.3
[3], 325.15 K	–	–	147.9
[3], 330.15 K	–	–	150.1
[3], 335.15 K	–	–	152
[3], 340.15 K	–	–	153.8
[3], 345.15 K	–	–	155.2
[3], 350.15 K	–	–	156.6
[3], 355.15 K	–	–	158.4
[3], 360.15 K	–	–	160.2
[3], 365.15 K	–	–	162.6
[3], 370.15 K	–	–	164.7
[3], 375.15 K	–	–	166
[3], 380.15 K	–	–	167.7
[3], 385.15 K	–	–	169.2
[3], 390.15 K	–	–	171
[3], 395.15 K	–	–	172.3
[3], 400.15 K	–	–	174.8
[3], 405.15 K	–	–	175.9
[3], 410.15 K	–	–	177.2
[3], 415.15 K	–	–	178.5
[3], 420.15 K	–	–	179.8
[3], 425.15 K	–	–	181.3
[3], 430.15 K	–	–	182.9

Source: the NIST ThermoML archive (doi:10.1021/je200420u)
